From article PMC7616177, “From structure to clinic: Design of a muscarinic M1 receptor agonist with the potential to treat Alzheimer’s disease” (Cell, 2021)
Where two headings read alike, the source gives them in different places.

Assays:
[1] = Dog plasma and CSF exposure after subcutaneous dosing; assay type: in vivo; conditions: sc; for concentration at 4 h: CSF, aged beagle, 4 h post-dose, read-out: Measured Ccsf concentration
[2] = system: panel of 62 GPCRs; test: DiscoverX neurological and psychiatric GPCR selectivity panel; assay type: cell-based; conditions: 10 μM
[3] = Rat CNS distribution and estimated unbound brain exposure; assay type: in vivo
[4] = system: Wistar rats; test: Open field exploratory behaviour; assay type: in vivo; conditions: rat
Description: During the rat passive avoidance testing, open field exploratory behavior was measured on study days 4 and 5 (acclimatisation and handling), 6 (training) and 7 (recall). The open field apparatus consisted of black-painted Perspex 620 mm^2 with walls 300 mm high. Locomotor activity, measured as the distance traveled in a 300 s period, as well as incidences of rearing and grooming were recorded, using Ethovision XT tracking software (Noldus UK).

[5] = system: dogs; test: Safety pharmacology and toxicology clinical signs, dog
[6] = target: T1, human M1 receptor (Homo sapiens, UniProt P11229); test: Interaction with ACh in IP1 assay after phenoxybenzamine receptor depletion (Schild); assay type: cell-based
T1 construct: expressed in transfected cells
T1 sequence (P11229 1-460): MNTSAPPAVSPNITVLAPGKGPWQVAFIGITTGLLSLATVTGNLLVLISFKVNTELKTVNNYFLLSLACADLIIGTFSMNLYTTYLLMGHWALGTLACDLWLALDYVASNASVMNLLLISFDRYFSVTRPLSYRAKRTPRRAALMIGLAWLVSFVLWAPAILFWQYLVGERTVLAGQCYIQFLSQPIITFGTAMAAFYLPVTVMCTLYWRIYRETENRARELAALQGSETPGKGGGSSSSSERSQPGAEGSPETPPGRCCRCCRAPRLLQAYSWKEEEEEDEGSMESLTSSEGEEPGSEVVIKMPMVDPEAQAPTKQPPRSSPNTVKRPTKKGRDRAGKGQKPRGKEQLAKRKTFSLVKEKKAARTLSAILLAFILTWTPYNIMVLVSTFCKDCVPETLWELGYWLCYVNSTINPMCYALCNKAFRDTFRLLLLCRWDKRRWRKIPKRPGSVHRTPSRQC

[7] = target: T2, M3-receptor (Homo sapiens, UniProt P20309); test: M3-receptor functional agonist assay; assay type: cell-based
T2 construct: expressed in transfected cells
Description: Functional assays were performed using the Alphascreen Surefire phopho-ERK1/2 assay. […] Once adhered, cells were serum starved overnight. Agonist stimulation was performed by the addition of […] agonist to the cells for a pre-optimized 5 min period (37°C). Media was removed and 50 μl of lysis buffer added. After 15 min a 4 μl sample was transferred to a 384-well plate and 7 μl of detection mixture added.

[8] = system: aged beagle dogs; test: Delayed non-matching to position (DNMP) in aged beagle dogs; assay type: in vivo, dog; conditions: aged beagles
Description: Animals were acclimatised in the testing facility for at least 3 months. During baseline days (days −12 to −8), 50 dogs underwent DNMP testing once daily using delays of 20 and 90 s equally dispersed over 12 trials per session.
These 40 subjects were tested on the DNMP using delays of 5, 55 and 105 s equally dispersed over 18 trials per session over five once-daily sessions (days −6 to −2). Therefore, baseline testing was conducted for a total of 10 days.
These dogs were then allocated into 5 groups, balanced for mean baseline performance accuracy at the longest delays (n = 8 per group). […] Daily treatment administration began on day 0, and dogs were tested once daily on the DNMP at the same delays employed at baseline for a minimum of 10 days. Each test consisted of two phases; in phase one, the dog is presented with an object over one of the three food wells. After the dog moves the object and obtains the food reward beneath, the tray is removed from the dog’s sight and the delay is initiated. The second phase occurs after the delay and consists of presenting the dog with two identical objects to that used in the first phase. One is in the same position as the first phase and the other covers a food reward in one of the two remaining food wells.

[9] = target: T1, human M1 receptor; test: pERK1/2 assay in CHO cells overexpressing human M1-receptor; assay type: cell-based
[10] = target: T3, M4-receptor (Homo sapiens, UniProt P08173); test: [3H]-NMS equilibrium radioligand binding, M4
T3 sequence (P08173 1-479): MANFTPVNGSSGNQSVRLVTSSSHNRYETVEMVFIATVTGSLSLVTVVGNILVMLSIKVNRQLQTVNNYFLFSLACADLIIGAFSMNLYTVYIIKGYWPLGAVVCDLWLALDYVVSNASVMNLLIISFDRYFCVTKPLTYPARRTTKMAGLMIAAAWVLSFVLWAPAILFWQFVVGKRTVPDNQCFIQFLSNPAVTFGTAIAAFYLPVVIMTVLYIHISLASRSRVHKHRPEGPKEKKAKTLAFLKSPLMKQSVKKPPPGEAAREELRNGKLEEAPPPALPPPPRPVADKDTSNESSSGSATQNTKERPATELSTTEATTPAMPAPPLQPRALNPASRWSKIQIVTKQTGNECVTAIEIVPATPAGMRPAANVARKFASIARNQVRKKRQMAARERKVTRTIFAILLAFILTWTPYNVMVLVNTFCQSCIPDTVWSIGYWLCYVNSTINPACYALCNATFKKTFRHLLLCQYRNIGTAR
Description: Non-specific binding (NSB) was determined in the presence of 1 μM atropine). Reactions were terminated by rapid filtration onto GF/B filter paper (Whatman, Maidstone, UK) and three washes with 3 mL ice-cold 0.9% NaCl using a Brandel harvester (M-24TI; Brandel, Fort Lauderdale, FL). Membrane bound radioactivity was determined by liquid scintillation (Ultima Gold; PerkinElmer) counting.
Data was analyzed using PRISM (GraphPad). For saturation binding, non-specific and total binding data were analyzed to a one site binding model. DPM was converted to fmol/mg to compare across constructs. […] […] The Cheng Prusoff equation was used to estimate pKi ([Cheng and Prusoff, 1973]).

T2 sequence (P20309 whole entry): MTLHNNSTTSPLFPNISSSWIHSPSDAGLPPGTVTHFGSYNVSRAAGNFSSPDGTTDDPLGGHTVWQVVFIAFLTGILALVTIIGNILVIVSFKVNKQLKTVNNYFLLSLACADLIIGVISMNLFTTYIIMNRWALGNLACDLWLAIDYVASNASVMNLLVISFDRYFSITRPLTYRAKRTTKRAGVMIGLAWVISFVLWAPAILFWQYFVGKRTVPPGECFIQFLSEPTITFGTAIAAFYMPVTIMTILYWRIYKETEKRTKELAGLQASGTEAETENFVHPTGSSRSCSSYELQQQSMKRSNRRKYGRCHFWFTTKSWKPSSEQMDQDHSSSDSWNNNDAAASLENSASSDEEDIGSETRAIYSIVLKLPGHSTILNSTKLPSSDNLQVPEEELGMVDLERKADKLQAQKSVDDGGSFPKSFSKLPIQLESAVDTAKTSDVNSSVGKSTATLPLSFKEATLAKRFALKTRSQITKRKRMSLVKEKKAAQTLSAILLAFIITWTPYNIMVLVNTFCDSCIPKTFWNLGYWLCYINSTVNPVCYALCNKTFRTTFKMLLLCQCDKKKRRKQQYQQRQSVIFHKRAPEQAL

SMILES: CCOC(=O)N1CCC[C@H](N2CCC(C(=O)NC3(C)CCC3)CC2)CC1 [HTL9936, ethyl (S)-4-(4-((1-methylcyclobutyl)carbamoyl)piperidin-1-yl)azepane-1-carboxylate]
- concentration at 4 h ([1]; 0.3 mg/kg s.c.): 13 nM
- concentration at 4 h ([1]; 1 mg/kg s.c.): 48 nM
- concentration at 4 h ([1]; 2 mg/kg s.c.): 128 nM
- Cmax ([1]; plasma, aged beagle DNMP study, 0.3 mg/kg subcutaneous, read-out: Cmax plasma exposure at minimal effective dose): 58 ng/mL
- Agonism at other receptors [2]: < 25%
- Distribution into the CNS ([3]; 1 mg/kg intravenous and 10 mg/kg oral): significant distribution into the CNS
- Estimated unbound drug in the brain Cu,br ([3]; 3 mg/kg p.o.): 79 nM
- Estimated unbound drug in the brain Cu,br ([3]; 10 mg/kg p.o.): 262 nM
- Estimated unbound drug in the brain Cu,br ([3]; 30 mg/kg p.o.): 786 nM
- Open-field exploratory behavior [4]: no difference in effect
- Cu,pl above which clinical signs were observed [5]: 283 nM
- Plasma exposure above which salivation, vomiting, lacrimation were observed [5]: exceeded 157 ng/mL
- Kb [6]: 6.31 µM
- EC50 [7]: > 20 µM
- M3-receptor agonist activity [7]: no detectable agonism
- Visual-spatial memory (DNMP performance) ([8]; 0.3 mg/kg and 1 mg/kg s.c.): Significant improvements in visual-spatial memory
- Effect compared with donepezil ([8]; 1 mg/kg s.c.): equivalent to that of donepezil
- EC50 [9]: 0.032 µM
- Ki [10]: 3.98 µM
